Data: ChEMBL document CHEMBL1201862, “PubChem BioAssay data set” (2004)
Calls of active or inactive are those of the source.

Biological target: T1, RNA-binding protein pos-1 (Caenorhabditis elegans, UniProt G5EF15)
T1 sequence (G5EF15 whole entry): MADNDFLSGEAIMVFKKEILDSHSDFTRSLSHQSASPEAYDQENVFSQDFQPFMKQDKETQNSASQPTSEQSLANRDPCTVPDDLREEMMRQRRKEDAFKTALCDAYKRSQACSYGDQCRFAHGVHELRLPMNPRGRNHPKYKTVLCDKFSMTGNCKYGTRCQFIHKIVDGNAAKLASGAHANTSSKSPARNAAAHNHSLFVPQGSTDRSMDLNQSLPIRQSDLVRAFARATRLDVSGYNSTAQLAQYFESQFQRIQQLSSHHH
Assay: disruptors of C. elegans POS-1 RNA interaction – biochemical, fluorescence polarization, dose response (AID 1964);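 also: purified POS-1 fused to maltose binding protein made in E. coli; potency of compounds blocking POS-1 binding to fluorescent RNA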
Conditions: not given

Row | Compound | EC50
1 | COc1ccc(S(=O)(=O)NNC(=O)C(=O)NNc2ccccn2)cc1 | > 300 µM (not active)

Biological target: Luciferin 4-monooxygenase (Photinus pyralis, UniProt P08659)
Sequence (P08659 whole entry): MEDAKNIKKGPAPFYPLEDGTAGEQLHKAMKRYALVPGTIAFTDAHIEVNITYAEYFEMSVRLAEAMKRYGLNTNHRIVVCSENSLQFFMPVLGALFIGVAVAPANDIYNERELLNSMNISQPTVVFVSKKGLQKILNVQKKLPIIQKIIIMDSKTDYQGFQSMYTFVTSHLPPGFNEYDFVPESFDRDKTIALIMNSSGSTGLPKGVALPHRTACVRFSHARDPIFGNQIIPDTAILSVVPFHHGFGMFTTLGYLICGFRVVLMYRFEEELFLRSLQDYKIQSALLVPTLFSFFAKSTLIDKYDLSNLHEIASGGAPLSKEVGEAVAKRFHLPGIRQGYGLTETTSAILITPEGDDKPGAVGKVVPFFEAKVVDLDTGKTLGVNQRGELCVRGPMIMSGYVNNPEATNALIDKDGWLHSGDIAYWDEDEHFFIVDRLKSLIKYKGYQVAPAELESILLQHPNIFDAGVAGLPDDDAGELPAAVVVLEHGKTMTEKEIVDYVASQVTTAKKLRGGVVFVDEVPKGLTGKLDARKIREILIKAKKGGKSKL
Assay: inhibition of purified Photinus pyralis luciferase – biochemical, luminescence, dose response (AID 1891)
Conditions: not given

Row | Compound | EC50
2 | Cc1cccc(OCC(=O)N2CCN(C(=O)c3cccs3)CC2)c1 | > 112 µM (not active)
3 | CC(=O)c1c(S)nc(-c2ccccc2)nc1N1CCN(C)CC1 | > 112 µM (not active)
4 | COc1cccc(C(=O)NCc2nnc(SCC(=O)Nc3nccs3)n2-c2ccccc2)c1 | > 112 µM (not active)
5 | O=C(NCCCN1CCOCC1)c1ccccc1 | > 112 µM (not active)

Tested on: not listed separately
Assay: Luminescence Cell-Based Dose Confirmation HTS to Identify Inhibitors of Platelet Dense Granule Release. [Related pubchem assays: 1663 (Primary HTS), 1678 (Summary of Project)]
Format: functional
Conditions: not given

Row | Compound | EC50
6 | Cc1cccc(OCC(=O)N2CCN(C(=O)c3cccs3)CC2)c1 | > 112 µM (not active)
7 | CC(=O)c1c(S)nc(-c2ccccc2)nc1N1CCN(C)CC1 | > 112 µM (not active)
8 | COc1cccc(C(=O)NCc2nnc(SCC(=O)Nc3nccs3)n2-c2ccccc2)c1 | > 112 µM (not active)
9 | O=C(NCCCN1CCOCC1)c1ccccc1 | > 112 µM (not active)

Tested on: not listed separately
Assay: microbe, parasite or virus in culture
Format: functional
Conditions: Mycobacterium tuberculosis

Row | Compound | CC50
10 | CC(=O)Nc1ccc(N2C(C(C)=O)=NN(c3ccc(Cl)cc3)C2c2sccc2C)cc1 (centres undefined) | > 40 µM (active)
11 | CN(C(=S)NC(=O)c1ccc(Cl)cc1)C1CCCCC1 | > 40 µM (active)
12 | O=C1CCc2ccc(OCCCCN3CCN(c4cccc(Cl)c4Cl)CC3)cc2N1 [ARIPIPRAZOLE] | 29.4 µM (active)
13 | COc1ccc(-c2nc(NC(=O)Cn3ccc(C(F)(F)F)n3)sc2C)cc1 | > 40 µM (active)

Tested on: INS1
Assay: INS-1E survival protection against cytokine death – cell-based, luminescence, retest, dose response (AID 449756);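 also: cell death triggered by IL-1 beta plus TNF-alpha plus IFN-gamma mixture; protective hits raise ATP signal compared with cytokine alone wells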
Format: functional
Conditions: Rattus norvegicus

Row | Compound | AC50
14 | O=C(NN=C(c1ccccc1)c1ccccn1)c1ccccc1 | 0.736 µM (active)

Tested on: Vero
Assay: cells
Format: functional
Conditions: Chlorocebus sabaeus

Row | Compound | CC50
15 | O=C(NN=C(c1ccccc1)c1ccccn1)c1ccccc1 | 3.11 µM (active)

Biological target: T2, Corticotropin-releasing factor receptor 2/Corticotropin-releasing factor-binding protein (Homo sapiens, UniProt P24387+Q13324)
T2 sequence (Q13324 whole entry): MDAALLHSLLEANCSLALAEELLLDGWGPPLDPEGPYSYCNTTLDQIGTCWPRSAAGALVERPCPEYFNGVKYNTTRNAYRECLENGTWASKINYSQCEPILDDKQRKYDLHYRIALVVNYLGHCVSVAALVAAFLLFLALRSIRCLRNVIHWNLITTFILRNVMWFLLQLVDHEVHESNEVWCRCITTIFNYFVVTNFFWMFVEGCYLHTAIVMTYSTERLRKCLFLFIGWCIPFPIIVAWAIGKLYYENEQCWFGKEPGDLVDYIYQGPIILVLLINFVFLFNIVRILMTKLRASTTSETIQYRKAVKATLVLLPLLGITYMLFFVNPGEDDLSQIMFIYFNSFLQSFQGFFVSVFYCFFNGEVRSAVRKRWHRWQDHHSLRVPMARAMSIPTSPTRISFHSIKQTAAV
T2 sequence (P24387 whole entry): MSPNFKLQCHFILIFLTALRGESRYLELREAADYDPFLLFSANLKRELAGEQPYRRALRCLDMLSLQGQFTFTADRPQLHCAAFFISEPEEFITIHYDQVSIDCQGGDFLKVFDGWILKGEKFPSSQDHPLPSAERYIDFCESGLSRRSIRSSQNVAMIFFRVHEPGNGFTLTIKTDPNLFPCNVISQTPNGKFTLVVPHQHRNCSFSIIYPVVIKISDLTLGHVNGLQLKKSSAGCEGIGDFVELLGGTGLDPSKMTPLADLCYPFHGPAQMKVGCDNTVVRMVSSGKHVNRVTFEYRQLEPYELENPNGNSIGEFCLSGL
Assay: Dose Response confirmation of uHTS hits for small molecule antagonists of the CRF-binding protein and CRF-R2 receptor complex.
Format: functional
Conditions: read-out: IC50_Mean

Row | Compound | IC50
16 | Cc1ccc(S(=O)(=O)N2[C@@H](c3ccc(Br)cc3)C(C(=O)O)=CC[C@H]2c2cccc(C)c2)cc1 | > 47.1 µM (inactive)
17 | COc1ccccc1CN1CCCC(C(=O)N(C)Cc2ccccc2)C1 (centres undefined) | > 47.1 µM (inactive)
18 | Cc1ccc(-c2nnc(SCC(=O)N3CCN(c4ccccc4)CC3)o2)cc1 | > 47.1 µM (inactive)
19 | CC(C)CC(C(=O)Nn1cnnc1)N1C(=O)c2ccccc2C1=O (centres undefined) | > 47.1 µM (inactive)
20 | COc1ccc(SCC(=O)Nc2ccccc2Cl)cc1 | > 47.1 µM (inactive)
21 | C[C@@H]1CCCCO[C@@H](CN(C)CC2CC2)[C@@H](C)CN([C@H](C)CO)C(=O)c2cc(N(C)C)ccc2O1 | > 47.1 µM (inactive)

Biological target: T2, Corticotropin-releasing factor receptor 2/Corticotropin-releasing factor-binding protein
Assay: activators of CRF receptor 2 with binding protein – uHTS hits, confirmation (AID 602473)
Format: functional
Conditions: read-out: EC50_Mean

Row | Compound | EC50
22 | Cc1ccc(S(=O)(=O)N2[C@@H](c3ccc(Br)cc3)C(C(=O)O)=CC[C@H]2c2cccc(C)c2)cc1 | > 53 µM (inactive)
23 | COc1ccccc1CN1CCCC(C(=O)N(C)Cc2ccccc2)C1 (centres undefined) | > 53 µM (inactive)
24 | Cc1ccc(-c2nnc(SCC(=O)N3CCN(c4ccccc4)CC3)o2)cc1 | > 53 µM (inactive)
25 | CC(C)CC(C(=O)Nn1cnnc1)N1C(=O)c2ccccc2C1=O (centres undefined) | > 53 µM (inactive)
26 | COc1ccc(SCC(=O)Nc2ccccc2Cl)cc1 | > 53 µM (inactive)
27 | C[C@@H]1CCCCO[C@@H](CN(C)CC2CC2)[C@@H](C)CN([C@H](C)CO)C(=O)c2cc(N(C)C)ccc2O1 | > 53 µM (inactive)

Biological target: Paired box protein Pax-8 (Homo sapiens, UniProt Q06710)
Sequence (Q06710 whole entry): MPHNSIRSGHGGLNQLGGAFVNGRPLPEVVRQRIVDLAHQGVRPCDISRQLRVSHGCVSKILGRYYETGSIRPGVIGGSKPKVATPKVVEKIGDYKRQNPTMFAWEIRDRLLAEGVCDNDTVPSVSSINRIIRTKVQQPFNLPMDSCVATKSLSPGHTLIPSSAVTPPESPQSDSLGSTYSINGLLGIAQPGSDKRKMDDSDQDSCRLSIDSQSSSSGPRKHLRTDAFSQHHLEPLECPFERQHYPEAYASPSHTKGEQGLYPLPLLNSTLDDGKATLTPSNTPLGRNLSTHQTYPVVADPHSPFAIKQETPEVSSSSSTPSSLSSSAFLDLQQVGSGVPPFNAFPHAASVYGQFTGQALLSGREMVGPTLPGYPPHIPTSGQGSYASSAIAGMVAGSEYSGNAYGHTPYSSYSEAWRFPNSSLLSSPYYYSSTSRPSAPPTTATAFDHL
Assay: PAX8 transcriptional activity inhibition in RMG-I – RMG-I cells, luciferase, cherry-pick, dose response (AID 687027);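 also: luciferase reporter driven by Pax8 target thyroperoxidase promoter measured by SteadyGlo luminescence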
Format: functional, cell-based
Conditions: not given

Row | Compound | AC50
28 | C[C@H]1CN([C@@H](C)CO)C(=O)c2ccccc2-c2ccccc2CO[C@H]1CN(C)S(=O)(=O)c1ccc(C(F)(F)F)cc1 | 9.62 µM (active)
29 | O=C(C1CCC1)N1CCCCN2[C@H](CO)[C@H](c3ccc(-c4cccc(F)c4)cc3)[C@H]2C1 | 19.1 µM (active)
